In patent US11896704B2, “Compounds useful for the treatment and/or care of the skin, hair, nails and/or mucous membranes” (LUBRIZOL ADVANCED MATERIALS, INC., priority 2017, dated 2024):

Columns and labels:
JARID1A protein (KDM5A) = test: JARID1A protein level in synchronized human keratinocytes (HaCaT), ELISA normalized to total protein; format: cell-based; settings: 0.5 mg/ml, 7:30 hours, mean of at least six assays
Protocol: In Vitro Study of JARID1A Protein Increase Protein Level by the Peptide […] (PEP-1, H-[SEQ ID. NO. 2]-NH2) on Synchronized Human Keratinocytes Using an ELISA Assay Based on Colorimetric Detection. HaCaT cells (human keratinocyte cell line, Deutsches Krebsforschungszentrum) are seeded at a density of 200.000 cells/well (2 wells per condition) in 12-well plates. Cells are seeded in culture medium Dulbecco's Modified Eagle Medium high GlutamaxTM (Fisher Scientific) supplemented with 10% (volume/volume) Fetal Bovine Serum (Cultek). […] Nuclear extracts are assayed to quantify the level of JARID1A protein and total protein concentration. JARID1A protein is quantified using an enzyme linked immunosorbent assay (Human lysine-specific demethylase 5A (KDM5A) (CUSABIO) according to the manufacturer's protocol. In brief, JARID1A protein is detected with the antibodies provided in the kit and quantified by a colorimetric reaction. Absorbance quantification is carried out by using a microplate reader (ClarioStar®, BMG) set to 450 nm and 570 nm. For wavelength correction, readings at 570 nm were subtracted from readings at 450 nm. Total protein concentration of cell lysate is determined by using Pierce BCA Protein Assay Kit (Thermo Scientific). […] After 30 minutes of incubation at 60° C., the change in colour is measured with the absorbance microplate reader (Clariostar®, BMG) at 562 nm. […]

[1] = tested on: CRY2 (cryptochrome circadian clock 2); test: Clock gene expression in synchronized HEKa, real time PCR: CRY2; format: cell-based, Human; settings: 0.5 mg/ml
Protocol: In Vitro Study of Clock Genes Expression in Synchronized Human Epidermal Keratinocytes from Adult (HEKa) Using Real Time PCR Arrays. HEKa cells (Life Technologies) are seeded at 3.0×10^5 cells/well in 12-well plates and incubated in culture medium, Keratinocyte growth medium supplemented with Mix C39016-CaCl2 solution (Promocell). For synchronization, cells were subjected to two alternative cycles of 12 hours each at 37° C. in 5% CO2 humidified air (day mode) and 33° C. in 5% CO2 humidified air (night mode). 12 hours after starting synchronization, cells are incubated with the synthetic peptide […] (PEP-1, H-[SEQ ID. NO. 2]-NH2) at 0.5 mg/ml in culture medium. Cells treated with medium alone are used as basal condition. At the end of synchronization, cell lysates are collected at two different times: 7:30 hour (early morning point) and 11:30 hour (midday point). […] After RNA elution, quantification and analysis of purity of RNA samples are performed with a nanodrop (Thermo). […] SYBR Green binds to double-stranded DNA molecules and emits fluorescence which is quantified, and the fluorescence intensity is proportional to the amount of the product in the PCR reaction. […] Fold change relative to the expression of the sample genes and reference genes is calculated using normalized expression (ΔΔ(Ct)) method using CFX Manager Software (BioRad).

H-Phe-Trp-Met-Lys-Arg-Lys-Arg-Val-Pro-NH2 (H-FWMKRKRVP-NH2) [PEP-1]
Percentage of JARID1A protein relative to basal condition (%) (JARID1A protein (KDM5A)): 126.84%
Fold induction respect to Basal condition at 7:30 h (%) [1]: 132.5%
